# Legend:
# [1] = molecular target: Cholinesterase (Equus caballus, UniProt P81908)
# [2] = molecular target: Amyloid-beta precursor protein (Homo sapiens) (UniProt P05067); assay: Inhibition of recombinant human HFIP-pretreated Amyloid beta (1 to 42) (unknown origin) self-induced aggregation at 10 uM after 24 hrs by thioflavin T-based fluorometric assay
# [3] = molecular target: Acetylcholinesterase (Electrophorus electricus, UniProt O42275)
# [4] = molecular target: Acetylcholinesterase (Homo sapiens, UniProt P22303)
# Chain of Acetylcholinesterase (Homo sapiens, UniProt P22303) (P22303 whole entry): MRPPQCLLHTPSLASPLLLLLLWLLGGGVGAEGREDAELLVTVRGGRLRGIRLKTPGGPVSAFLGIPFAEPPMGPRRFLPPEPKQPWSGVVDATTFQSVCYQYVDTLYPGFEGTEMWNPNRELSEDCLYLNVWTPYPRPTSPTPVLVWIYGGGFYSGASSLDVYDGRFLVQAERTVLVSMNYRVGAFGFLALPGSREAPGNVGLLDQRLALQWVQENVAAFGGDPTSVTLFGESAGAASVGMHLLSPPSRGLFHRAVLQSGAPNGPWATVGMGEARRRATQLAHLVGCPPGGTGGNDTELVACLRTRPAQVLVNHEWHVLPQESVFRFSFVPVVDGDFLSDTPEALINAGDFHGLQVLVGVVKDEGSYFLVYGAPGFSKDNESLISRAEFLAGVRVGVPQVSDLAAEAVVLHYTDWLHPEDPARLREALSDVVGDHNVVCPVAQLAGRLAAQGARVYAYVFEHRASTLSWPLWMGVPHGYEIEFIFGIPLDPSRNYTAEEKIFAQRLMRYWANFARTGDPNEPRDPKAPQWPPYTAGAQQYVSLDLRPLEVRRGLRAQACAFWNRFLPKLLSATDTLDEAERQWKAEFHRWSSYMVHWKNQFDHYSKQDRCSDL
# [5] = PAMPA
# [6] = molecular target: Cholinesterase (Equus caballus) (UniProt P81908); assay: Inhibition of BuChE in horse serum at 10 uM pre-incubated for 5 mins before addition of butyrylthiocholine iodide substrate by Ellman's assay
# Chain of Cholinesterase (Equus caballus) (P81908 whole entry): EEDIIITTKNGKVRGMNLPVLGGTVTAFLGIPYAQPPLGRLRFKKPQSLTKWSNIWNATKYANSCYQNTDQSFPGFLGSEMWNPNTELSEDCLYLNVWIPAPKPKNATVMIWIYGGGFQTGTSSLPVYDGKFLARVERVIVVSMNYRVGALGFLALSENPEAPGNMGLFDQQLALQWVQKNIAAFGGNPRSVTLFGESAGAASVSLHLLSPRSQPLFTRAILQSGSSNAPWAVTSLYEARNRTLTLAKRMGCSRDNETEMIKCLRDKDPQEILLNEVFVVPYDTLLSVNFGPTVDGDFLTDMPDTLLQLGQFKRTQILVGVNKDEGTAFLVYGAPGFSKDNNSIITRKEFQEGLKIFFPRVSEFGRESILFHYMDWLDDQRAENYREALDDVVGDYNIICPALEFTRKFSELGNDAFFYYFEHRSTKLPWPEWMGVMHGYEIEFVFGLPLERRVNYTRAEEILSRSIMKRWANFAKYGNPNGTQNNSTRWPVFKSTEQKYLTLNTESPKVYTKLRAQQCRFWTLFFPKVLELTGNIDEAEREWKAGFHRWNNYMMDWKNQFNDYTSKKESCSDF
# Chain of Acetylcholinesterase (Electrophorus electricus, UniProt O42275) (O42275 whole entry): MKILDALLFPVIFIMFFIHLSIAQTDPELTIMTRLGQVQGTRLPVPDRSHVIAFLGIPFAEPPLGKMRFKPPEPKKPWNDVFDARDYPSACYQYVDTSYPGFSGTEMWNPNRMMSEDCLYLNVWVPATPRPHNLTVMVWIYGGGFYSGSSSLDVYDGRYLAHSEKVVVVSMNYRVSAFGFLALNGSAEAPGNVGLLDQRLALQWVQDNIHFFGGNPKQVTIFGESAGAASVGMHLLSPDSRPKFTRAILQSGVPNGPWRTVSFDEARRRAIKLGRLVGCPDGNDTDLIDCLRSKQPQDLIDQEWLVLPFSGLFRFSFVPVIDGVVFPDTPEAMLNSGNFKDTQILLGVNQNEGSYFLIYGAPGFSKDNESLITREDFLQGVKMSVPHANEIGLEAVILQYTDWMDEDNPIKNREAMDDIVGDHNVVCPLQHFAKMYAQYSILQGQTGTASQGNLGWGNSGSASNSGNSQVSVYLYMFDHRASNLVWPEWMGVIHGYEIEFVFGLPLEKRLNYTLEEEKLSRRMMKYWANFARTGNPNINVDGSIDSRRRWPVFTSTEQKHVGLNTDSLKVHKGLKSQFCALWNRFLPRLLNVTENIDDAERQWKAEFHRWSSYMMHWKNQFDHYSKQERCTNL
# Chain of Cholinesterase (P81908 whole entry): as the sequence (P81908 whole entry) above
# Chain of Amyloid-beta precursor protein (Homo sapiens) (P05067 whole entry): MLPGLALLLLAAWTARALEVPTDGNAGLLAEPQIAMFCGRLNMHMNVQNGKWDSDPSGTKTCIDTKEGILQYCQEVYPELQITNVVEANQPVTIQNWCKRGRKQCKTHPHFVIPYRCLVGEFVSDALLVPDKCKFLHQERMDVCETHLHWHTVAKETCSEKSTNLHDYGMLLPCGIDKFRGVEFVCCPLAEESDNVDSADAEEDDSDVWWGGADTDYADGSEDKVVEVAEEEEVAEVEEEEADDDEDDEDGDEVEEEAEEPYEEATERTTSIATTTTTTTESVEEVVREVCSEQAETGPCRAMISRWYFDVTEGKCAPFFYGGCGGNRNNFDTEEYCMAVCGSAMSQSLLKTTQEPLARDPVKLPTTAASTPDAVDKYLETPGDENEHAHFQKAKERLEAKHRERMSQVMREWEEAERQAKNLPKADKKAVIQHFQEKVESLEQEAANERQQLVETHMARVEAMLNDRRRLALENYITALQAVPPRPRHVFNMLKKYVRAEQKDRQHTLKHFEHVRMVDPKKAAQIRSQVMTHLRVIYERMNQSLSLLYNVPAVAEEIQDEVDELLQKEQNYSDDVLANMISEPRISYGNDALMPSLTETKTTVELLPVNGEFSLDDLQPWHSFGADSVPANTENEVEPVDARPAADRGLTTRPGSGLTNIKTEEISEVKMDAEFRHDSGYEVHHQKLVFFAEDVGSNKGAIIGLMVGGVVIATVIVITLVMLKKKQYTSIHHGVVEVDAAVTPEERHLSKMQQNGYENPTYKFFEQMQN
Structure (SMILES),IC50 [1],inhibition [2],IC50 [3],IC50 [4],log Pe [5],inhibition [6]
CN(CCCCCCCCN1C(=O)c2ccccc2C1=O)Cc1cccc(Cl)c1,0.909 µM,< 5%,1.36 µM,1.04 µM,,
CC(=O)[C@H]1CC[C@H]2[C@@H]3CCC4=CC(=O)CC[C@]4(C)[C@H]3CC[C@]12C [PROGESTERONE],,,,,-5.1,
CN(CCCCCCCN1C(=O)c2ccccc2C1=O)Cc1ccccc1F,7.16 µM,< 5%,0.525 µM,0.625 µM,,
O=C1c2ccccc2C(=O)N1Cc1ccc(CNCc2ccccc2)cc1,2.08 µM,< 5%,,,,
CN(CCCCCCN1C(=O)c2ccccc2C1=O)Cc1ccccc1,,< 5%,0.089 µM,1.83 µM,,< 50%
CN(CCCCCCCN1C(=O)c2ccccc2C1=O)Cc1ccccc1,1.01 µM,< 5%,0.172 µM,0.997 µM,,
O=C1c2ccccc2C(=O)N1Cc1ccc(CNCc2ccccc2F)cc1,2.9 µM,< 5%,2.58 µM,,,
CN(CCCCCCCCN1C(=O)c2ccccc2C1=O)Cc1ccccc1F,4.68 µM,< 5%,0.661 µM,0.644 µM,,
CN(CCCCCCN1C(=O)c2ccccc2C1=O)Cc1cccc(Cl)c1,2.44 µM,< 5%,0.095 µM,1.19 µM,,
CN(CCCCCN1C(=O)c2ccccc2C1=O)Cc1ccccc1,,< 5%,0.08 µM,0.361 µM,,< 50%
CN(CCCCCCCN1C(=O)c2ccccc2C1=O)Cc1cccc(Cl)c1,1.5 µM,< 5%,0.5 µM,1.3 µM,,
CN(CCCCN1C(=O)c2ccccc2C1=O)Cc1cccc(Cl)c1,,< 5%,1.43 µM,,,< 50%
CN(CCCCCN1C(=O)c2ccccc2C1=O)Cc1cccc(Cl)c1,5.83 µM,< 5%,0.11 µM,0.537 µM,,
CN(CCCCN1C(=O)c2ccccc2C1=O)Cc1ccccc1F,,< 5%,1.52 µM,,,< 50%
CN(CCCCCCCCN1C(=O)c2ccccc2C1=O)Cc1ccccc1,0.543 µM,< 5%,0.139 µM,0.86 µM,,
CN(CCCCCCN1C(=O)c2ccccc2C1=O)Cc1ccccc1F,10.5 µM,< 5%,0.075 µM,1.99 µM,,
CN(CCCCCN1C(=O)c2ccccc2C1=O)Cc1ccccc1F,,< 5%,0.067 µM,0.525 µM,,< 50%
CN(CCCCN1C(=O)c2ccccc2C1=O)Cc1ccccc1,,< 5%,2.33 µM,,,< 50%
O=C1c2ccccc2C(=O)N1Cc1ccc(CNCc2cccc(Cl)c2)cc1,1.32 µM,< 5%,6.31 µM,,,

# From ChEMBL document CHEMBL3400003, “Isoindoline-1,3-dione derivatives targeting cholinesterases: design, synthesis and biological evaluation of potential anti-Alzheimer's agents” (Bioorg Med Chem, 2015)
